Reference: article PMC5481569, “A Bacteroidetes locus dedicated to fungal 1,6-β-glucan degradation: Unique substrate conformation drives specificity of the key endo-1,6-β-glucanase” (The Journal of Biological Chemistry, 2017)

How the values were obtained:
[1] = molecular target: T1, BT3313 (Bacteroides thetaiotaomicron, UniProt Q8A2J2); experiment: isothermal titration calorimetry; assay type: binding; details: 50 mM Na-Hepes, pH 7.5, 25 °C
T1 construct: gene BT_3313; signal peptide (lipoprotein) removed; N-terminal hexahistidine tag; pET28 derivative, E. coli
T1 sequence (Q8A2J2 20-667): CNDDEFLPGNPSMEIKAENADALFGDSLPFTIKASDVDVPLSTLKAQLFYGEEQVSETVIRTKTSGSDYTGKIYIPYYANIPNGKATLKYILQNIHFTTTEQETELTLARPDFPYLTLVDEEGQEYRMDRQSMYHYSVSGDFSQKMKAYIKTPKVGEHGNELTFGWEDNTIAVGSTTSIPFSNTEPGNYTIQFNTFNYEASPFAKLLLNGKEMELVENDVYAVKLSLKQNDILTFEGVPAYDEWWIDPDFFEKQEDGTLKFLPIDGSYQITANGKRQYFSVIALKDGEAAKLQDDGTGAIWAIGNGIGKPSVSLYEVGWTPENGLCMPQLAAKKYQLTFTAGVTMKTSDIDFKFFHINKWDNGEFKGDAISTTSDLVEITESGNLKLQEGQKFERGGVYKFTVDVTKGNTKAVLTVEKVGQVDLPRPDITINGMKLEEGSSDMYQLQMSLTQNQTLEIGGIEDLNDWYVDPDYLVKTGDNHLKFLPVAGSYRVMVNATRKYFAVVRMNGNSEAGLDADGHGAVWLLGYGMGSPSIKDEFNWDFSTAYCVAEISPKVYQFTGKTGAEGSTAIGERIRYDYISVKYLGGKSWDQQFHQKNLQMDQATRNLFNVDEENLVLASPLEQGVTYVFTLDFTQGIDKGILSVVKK
Source text: isothermal titration calorimetry on BT3313

[2] = molecular target: T2, BT3311 (Bacteroides thetaiotaomicron, UniProt Q8A2J4); experiment: isothermal titration calorimetry; assay type: binding; details: 50 mM Na-Hepes, pH 7.5, 25 °C
T2 construct: gene BT_3311; signal peptide (lipoprotein) removed; N-terminal hexahistidine tag; pET28 derivative, E. coli
T2 sequence (Q8A2J4 22-506): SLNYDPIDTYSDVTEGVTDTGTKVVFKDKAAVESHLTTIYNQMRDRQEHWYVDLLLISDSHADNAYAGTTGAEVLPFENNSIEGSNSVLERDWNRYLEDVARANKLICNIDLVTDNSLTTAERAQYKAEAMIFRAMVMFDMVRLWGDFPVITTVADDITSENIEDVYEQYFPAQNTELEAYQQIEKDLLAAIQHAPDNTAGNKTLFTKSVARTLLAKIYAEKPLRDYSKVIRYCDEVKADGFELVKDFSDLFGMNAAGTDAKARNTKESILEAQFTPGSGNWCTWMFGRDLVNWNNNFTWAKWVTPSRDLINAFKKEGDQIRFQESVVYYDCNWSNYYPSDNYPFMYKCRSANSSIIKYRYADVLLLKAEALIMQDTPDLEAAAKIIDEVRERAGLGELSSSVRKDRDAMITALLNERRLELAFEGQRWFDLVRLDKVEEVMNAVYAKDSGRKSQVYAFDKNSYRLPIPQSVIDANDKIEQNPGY
Source text: isothermal titration calorimetry on BT3311

[3] = molecular target: T3, BT3312 (Bacteroides thetaiotaomicron, UniProt Q8A2J3); experiment: glucose release from […]-β-glucotriose (D-glucose detection kit); also crystal structure, […] Å; assay type: biochemical
T3 construct: gene BT_3312; signal peptide (lipoprotein) removed; N-terminal hexahistidine tag; pET28 derivative, E. coli Tuner; residues 82-427 form the TIM barrel domain
T3 sequence (Q8A2J3 22-496): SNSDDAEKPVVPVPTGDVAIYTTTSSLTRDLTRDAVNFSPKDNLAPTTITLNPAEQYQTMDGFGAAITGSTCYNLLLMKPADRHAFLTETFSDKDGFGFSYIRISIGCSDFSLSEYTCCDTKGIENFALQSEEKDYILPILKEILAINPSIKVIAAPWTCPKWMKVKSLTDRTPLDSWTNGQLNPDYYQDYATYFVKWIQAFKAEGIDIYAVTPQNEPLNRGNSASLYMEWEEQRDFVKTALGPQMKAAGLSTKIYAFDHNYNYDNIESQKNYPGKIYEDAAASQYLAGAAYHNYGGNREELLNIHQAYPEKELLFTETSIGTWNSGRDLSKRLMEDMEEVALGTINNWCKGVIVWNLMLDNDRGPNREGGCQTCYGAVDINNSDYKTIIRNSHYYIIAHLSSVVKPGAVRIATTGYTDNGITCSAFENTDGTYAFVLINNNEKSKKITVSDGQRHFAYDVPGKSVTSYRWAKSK

Row | Compound | Ka [1] | Ka [2] | Ki [3] [mM]
1 | OC[C@H]1O[C@@H](OC[C@H]2O[C@@H](OC[C@H]3O[C@@H](OC[C@H]4O[C@@H](OC[C@H]5O[C@@H](OC[C@H]6O[C@@H](OC[C@H]7OC(O)[C@H](O)[C@@H](O)[C@@H]7O)[C@H](O)[C@@H](O)[C@@H]6O)[C@H](O)[C@@H](O)[C@@H]5O)[C@H](O)[C@@H](O)[C@@H]4O)[C@H](O)[C@@H](O)[C@@H]3O)[C@H](O)[C@@H](O)[C@@H]2O)[C@H](O)[C@@H](O)[C@@H]1O (stereo partly drawn) [1,6-β-Glucoheptaose] | 1.5 × 10^4 ± 0.2 | 2.1 × 10^4 ± 0.1 | –
2 | OC[C@H]1O[C@@H](OC[C@H]2O[C@@H](OC[C@H]3O[C@@H](OC[C@H]4O[C@@H](OC[C@H]5O[C@@H](OC[C@H]6OC(O)[C@H](O)[C@@H](O)[C@@H]6O)[C@H](O)[C@@H](O)[C@@H]5O)[C@H](O)[C@@H](O)[C@@H]4O)[C@H](O)[C@@H](O)[C@@H]3O)[C@H](O)[C@@H](O)[C@@H]2O)[C@H](O)[C@@H](O)[C@@H]1O (stereo partly drawn) [1,6-β-Glucohexaose] | 8.0 × 10^3 ± 0.7 | 1.6 × 10^4 ± 0.1 | –
3 | OC[C@H]1O[C@@H](OC[C@H]2NC[C@H](O)[C@@H](O)[C@@H]2O)[C@H](O)[C@@H](O)[C@@H]1O [compound 5, β-D-Glucopyranosyl-1,6-deoxynojirimycin] | – | – | ~1
4 | OC[C@H]1O[C@@H](OC[C@H]2O[C@@H](OC[C@H]3O[C@@H](OC[C@H]4O[C@@H](OC[C@H]5OC(O)[C@H](O)[C@@H](O)[C@@H]5O)[C@H](O)[C@@H](O)[C@@H]4O)[C@H](O)[C@@H](O)[C@@H]3O)[C@H](O)[C@@H](O)[C@@H]2O)[C@H](O)[C@@H](O)[C@@H]1O (stereo partly drawn) [1,6-β-Glucopentaose] | 3.6 × 10^3 ± 0.2 | 8.3 × 10^3 ± 0.3 | –
